In patent US10191057B2, “Methods of diagnosing, classifying and treating endometrial cancer and precancer” (THE TRANSLATIONAL GENOMICS RESEARCH INSTITUTE, priority 2007, dated 2019):

Assays:
[1] = test system: ERK1/2; assay: Western blot, activation of ERK1/2; type: cell-based, human
Protocol: (§1) Cells were plated at a density of 4×10^5 cells per well in a 6 well plate. The next day, cells were infected with lentiviral stocks in the presence of 6 μg/ml polybrene (Sigma-Aldrich, St. Louis, Mo.). Empty vector and nonsilencing shRNA infections were used as controls for each experiment. […] Growth Inhibition Assay Twenty-four hours after infection, cells were trypsinized and plated in 96 well plates in full growth medium at a density of 5,000 cells per well, in triplicate, and proliferation assessed using the Sulforhodamine B (SRB) assay (Sigma-Aldrich, St. Louis, Mo.). At the indicated time points, wells were fixed with 10% (wt/vol) trichloroacetic acid, stained with SRB for 30 min, and washed with 1% (vol/vol) acetic acid. The protein-bound dye was dissolved in 10 mM Tris base solution, and absorbance measured at 510 nm. […] Annexin V-FITC Labeling of Apoptotic Cells Annexin V-FITC staining was used to measure phosphatidylserine exposure on cells undergoing apoptosis, according to the manufacturer's instructions (BioVision, Inc. Mountain View, Calif.). […] 2.5×10^5 cells were plated per well in a 6 well plate. Twenty-four hours later, cells were transfected with 25 nM nonsilencing (NS) siRNA or FGFR2 siRNA X2 using Lipofectamine 2000 transfection reagent. The siRNA duplex was allowed to form a complex with Lipofectamine 2000 for 20 minutes at room temperature, and transfection carried out at 37° C. for 24 hours. 48 hours after transfection, floating and attached cells were collected, washed in cold PBS, resuspended in Annexin binding buffer (10 mM Hepes (pH 7.4), 140 mM NaCl, 2.5 mM CaCl2), stained with 500 ng/mL annexinV-FITC and 1 μg/mL propidium iodide (Sigma-Aldrich, St. Louis, Mo.), and analyzed for annexin positive cells using a CyAn ADP flow cytometer and Summit software, version 4.3 (Dako Cytomation, Carpinteria, Calif.). […] Cell Cycle Analysis Cells were plated at a density of 1×10^5 cells per well in a 6 well plate. […] 72 hours later, cells were stained with propidium iodide as described {Krishan, 1975 #28} and analyzed by flow cytometry. Cell cycle analysis was performed using ModFit software (Verity Software House, Inc. Topsham, Me.). Western Blot Analysis Cells were plated in 60 mm^2 dishes at a density of 2×10^6 cells per dish. […] Cells were washed in ice cold PBS, lysed in kinase buffer [20 mM Hepes pH7.4, 2 mM EGTA, 1% Triton X100, 10% glycerol, 1 mM Na3VO4, 1 mM NaF, 100 uM AEBSF, and 1 tablet/10 mL of Mini Complete Protease Inhibitor (Roche Molecular Biochemicals, Indianapolis, Ind.)], briefly sonicated on ice, and protein concentrations estimated using Quick Start Bradford Reagent with bovine gamma-globulin standards (Bio-Rad Laboratories, Hercules, Calif.). Equal amounts of protein were separated by SDS-PAGE on 4-12% gradient gels and transferred to polyvinylidene difluoride membranes (Invitrogen, Carlsbad, Calif.). Membranes were immunoblotted with antibodies to phosphorylated and total AKT, ERK1/2, p38, STAT-3 and STAT-5, PLCγ and total PTEN (Cell Signaling Technology, Beverly, Mass.). FGFR2 expression was detected with BekC17 antibody (Santa Cruz Biotechnology, Inc., Santa Cruz, Calif.). Horseradish peroxidase-conjugated goat anti-mouse or anti-rabbit secondary antibodies (Biomeda, Foster City, Calif.), were used, followed by chemiluminescence staining. For shRNA studies, lysates were collected 48 hours after shRNA transduction and processed as described above. Statistical Analysis

[2] = test system: RL952 cells (wildtype FGFR2); assay: SRB cell viability assay, RL952; type: cell-based; conditions: Homo sapiens, RL95-2, read-out: PD173074 IC50, cell viability; RL952, SRB assay 72 hours after addition, full growth medium
Protocol: (§2) Cells were plated at a density of 4×10^5 cells per well in a 6 well plate. The next day, cells were infected with lentiviral stocks in the presence of 6 μg/ml polybrene (Sigma-Aldrich, St. Louis, Mo.). Empty vector and nonsilencing shRNA infections were used as controls for each experiment. […] Growth Inhibition Assay Twenty-four hours after infection, cells were trypsinized and plated in 96 well plates in full growth medium at a density of 5,000 cells per well, in triplicate, and proliferation assessed using the Sulforhodamine B (SRB) assay (Sigma-Aldrich, St. Louis, Mo.). […] The protein-bound dye was dissolved in 10 mM Tris base solution, and absorbance measured at 510 nm. […] 48 hours after transfection, floating and attached cells were collected, washed in cold PBS, resuspended in Annexin binding buffer (10 mM Hepes (pH 7.4), 140 mM NaCl, 2.5 mM CaCl2), stained with 500 ng/mL annexinV-FITC and 1 μg/mL propidium iodide (Sigma-Aldrich, St. Louis, Mo.), and analyzed for annexin positive cells using a CyAn ADP flow cytometer and Summit software, version 4.3 (Dako Cytomation, Carpinteria, Calif.). […] 72 hours later, cells were stained with propidium iodide as described {Krishan, 1975 #28} and analyzed by flow cytometry. […] FGFR2 expression was detected with BekC17 antibody (Santa Cruz Biotechnology, Inc., Santa Cruz, Calif.). […]

[3] = test system: KLE cells (wildtype FGFR2); assay: SRB cell viability assay, KLE; type: cell-based; conditions: Homo sapiens, read-out: PD173074 IC50, cell viability, SRB assay 72 hours after addition, full growth medium
[4] = test system: AN3CA cells; assay: Cell cycle analysis (propidium iodide, flow cytometry), AN3CA; type: cell-based, human; conditions: 1 μM, 72 hrs
Protocol: as §2

[5] = test system: STAT3; assay: Western blot, activation of STAT3; type: cell-based, human; conditions: 10% FBS
Protocol: as §1

[6] = test system: AN3CA cells (N550K FGFR2 mutation); assay: SRB cell proliferation/viability assay, AN3CA; type: cell-based; conditions: Homo sapiens, AN3-CA, read-out: PD173074 IC50, cell viability, SRB assay 72 hours after addition, full growth medium
[7] = test system: AN3CA (FGFR2 N550K mutant) xenograft tumors; assay: AN3CA xenograft tumor growth; conditions: 25 mg/kg twice daily by oral gavage
Protocol: (§3) Briefly, mice were inoculated subcutaneously with 0.1 ml of a 50% RPMI/50% Matrigel™ mixture containing a suspension of tumor cells (1×10^7 cells/mouse). […] Tumor weight measurements were recorded three times a week.

[8] = test system: HEC1A cells (wildtype FGFR2); assay: SRB cell viability assay, HEC1A; type: cell-based; conditions: Homo sapiens, HEC-1-A, read-out: PD173074 IC50, cell viability, SRB assay 72 hours after addition, full growth medium
Protocol: as §2

[9] = test system: myeloma cells with an activating t(4; 14) translocation and activating mutations in FGFR3; conditions: t(4; 14) translocation and activating FGFR3 mutations; cited from earlier work
[10] = target: VEGFR2 (Homo sapiens, UniProt P35968); conditions: cited from earlier work
Chain of VEGFR2 (P35968 20-1356, species assumed): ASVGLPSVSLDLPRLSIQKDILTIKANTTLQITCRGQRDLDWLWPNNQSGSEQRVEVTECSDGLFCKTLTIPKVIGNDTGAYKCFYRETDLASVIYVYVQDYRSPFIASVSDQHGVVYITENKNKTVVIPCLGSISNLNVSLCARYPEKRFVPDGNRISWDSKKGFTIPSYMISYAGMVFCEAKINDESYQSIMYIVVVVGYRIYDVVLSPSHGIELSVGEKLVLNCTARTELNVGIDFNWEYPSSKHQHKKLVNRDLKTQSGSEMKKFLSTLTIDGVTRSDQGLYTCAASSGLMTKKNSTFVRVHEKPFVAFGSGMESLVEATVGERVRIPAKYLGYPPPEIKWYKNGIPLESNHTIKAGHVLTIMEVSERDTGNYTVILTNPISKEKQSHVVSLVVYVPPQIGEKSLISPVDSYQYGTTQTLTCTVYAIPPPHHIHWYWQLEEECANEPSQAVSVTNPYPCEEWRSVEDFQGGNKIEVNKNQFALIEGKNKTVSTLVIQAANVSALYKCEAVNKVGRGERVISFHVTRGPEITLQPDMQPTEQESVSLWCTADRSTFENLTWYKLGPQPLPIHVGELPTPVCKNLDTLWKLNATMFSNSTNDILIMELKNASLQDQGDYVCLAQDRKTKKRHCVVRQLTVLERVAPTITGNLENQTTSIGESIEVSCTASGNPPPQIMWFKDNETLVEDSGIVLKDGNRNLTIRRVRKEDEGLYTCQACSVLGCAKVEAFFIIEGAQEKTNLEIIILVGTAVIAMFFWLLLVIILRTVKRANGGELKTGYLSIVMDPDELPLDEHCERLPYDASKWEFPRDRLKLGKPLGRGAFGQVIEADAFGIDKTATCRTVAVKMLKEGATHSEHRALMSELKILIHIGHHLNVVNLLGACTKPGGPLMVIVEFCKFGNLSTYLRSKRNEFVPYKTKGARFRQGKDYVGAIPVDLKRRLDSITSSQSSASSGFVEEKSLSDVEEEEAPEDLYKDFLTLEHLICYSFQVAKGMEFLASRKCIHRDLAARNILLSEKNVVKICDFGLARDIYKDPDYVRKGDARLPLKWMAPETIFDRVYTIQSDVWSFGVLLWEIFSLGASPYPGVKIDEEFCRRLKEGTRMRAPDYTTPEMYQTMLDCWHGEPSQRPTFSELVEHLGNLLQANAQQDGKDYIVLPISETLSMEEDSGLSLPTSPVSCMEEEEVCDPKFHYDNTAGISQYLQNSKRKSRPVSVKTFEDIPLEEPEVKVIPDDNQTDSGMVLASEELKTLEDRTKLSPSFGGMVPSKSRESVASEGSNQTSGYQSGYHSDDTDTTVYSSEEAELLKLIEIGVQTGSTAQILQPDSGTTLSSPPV

[11] = test system: PLCγ; assay: Western blot, activation of PLCγ; type: cell-based, human; conditions: following PD173074 treatment, data not shown
Protocol: as §2

[12] = test system: MFE296 cells (N550K FGFR2 mutation); assay: SRB cell proliferation/viability assay, MFE296; type: cell-based; conditions: Homo sapiens, MFE-296, read-out: PD173074 IC50, cell viability; MFE296, SRB assay 72 hours after addition, full growth medium
Protocol: as §2

[13] = test system: Hec1A (FGFR2 wild type) xenograft tumors; assay: Hec1A xenograft tumor growth; conditions: 25 mg/kg twice daily by oral gavage
Protocol: as §3

[14] = test system: MFE296 cells; assay: Cell cycle analysis, MFE296; type: cell-based, human; conditions: MFE296, data not shown
Protocol: as §2

[15] = test system: MFE296 cells; assay: Annexin V-FITC labeling of apoptotic cells, MFE296; type: cell-based, human; conditions: MFE296, data not shown
Protocol: as §2

[16] = test system: AN3CA cells; assay: Annexin V-FITC labeling of apoptotic cells, AN3CA; type: cell-based, human
Protocol: as §2

[17] = test system: p38; assay: Western blot, activation of p38; type: cell-based, human; conditions: 10% FBS
Protocol: as §1

[18] = test system: AKT; assay: Western blot, activation of AKT; type: cell-based, human; conditions: for AKT activation: HEC1A
Protocol: as §1

[19] = test system: Ishikawa cells (wildtype FGFR2); assay: SRB cell viability assay, Ishikawa; type: cell-based; conditions: Homo sapiens, read-out: PD173074 IC50, cell viability, SRB assay 72 hours after addition, full growth medium
Protocol: as §2

[20] = AN3CA, 1 μM, 0 to 72 hours, 0.2% FBS
[21] = AN3CA, 1 μM, 0 to 72 hours, 10% FBS
[22] = AN3CA, increasing concentrations, 3 hours, 10% FBS
[23] = MFE296, 1 μM, 0 to 72 hours, 0.2% FBS
[24] = MFE296, 1 μM, 0 to 72 hours, 10% FBS
[25] = MFE296, increasing concentrations, 3 hours, 10% FBS
[26] = AN3CA, increasing concentrations, 3 hours
[27] = HEC1A, increasing concentrations, 3 hours
[28] = MFE296, increasing concentrations, 3 hours

For `CCN(CC)CCCCNc1ncc2cc(-c3cc(OC)cc(OC)c3)c(NC(=O)NC(C)(C)C)nc2n1` [PD173074], which ERK1/2 activation [1, 20] is on record?
The ERK1/2 activation was “suppression of ERK1/2 activation”.

And the ERK1/2 activation [1, 21]?
The ERK1/2 activation was “suppression of ERK1/2 activation”.

And the ERK1/2 activation [1, 22]?
The ERK1/2 activation was “suppression of ERK1/2 activation”.

And the ERK1/2 activation ([1]; HEC1A, 1 μM, 0 to 72 hours, 0.2% FBS)?
Its ERK1/2 activation is “no effect”.

What about the ERK1/2 activation ([1]; HEC1A, 1 μM, 0 to 72 hours, 10% FBS) of the same molecule?
Its ERK1/2 activation is “no effect”.

What about the ERK1/2 activation ([1]; HEC1A, increasing concentrations, 3 hours, 10% FBS) of the same molecule?
The ERK1/2 activation was “no effect”.

What about the ERK1/2 activation [1, 23] of the same molecule?
Its ERK1/2 activation is “suppression of ERK1/2 activation”.

What about the ERK1/2 activation [1, 24] of the same molecule?
The ERK1/2 activation was “suppression of ERK1/2 activation”.

And the ERK1/2 activation [1, 25]?
The ERK1/2 activation was “suppression of ERK1/2 activation”.

What about the IC50 [2] of the same molecule?
The IC50 was over 1 µM.

And the IC50 [3]?
The IC50 was over 1 µM.

And the cell cycle effect [4]?
The cell cycle effect was “G1 cell cycle arrest”.

What about the STAT3 activation ([5]; AN3CA, 1 μM, 0 to 72 hours) of the same molecule?
The STAT3 activation was “no effect”.

What about the STAT3 activation [5, 26] of the same molecule?
Its STAT3 activation is “no effect”.

What about the STAT3/5 activation ([5]; HEC1A, 1 μM, 0 to 72 hours) of the same molecule?
The STAT3/5 activation was “no effect”.

What about the STAT3 activation [5, 27] of the same molecule?
The STAT3 activation was “no effect”.

What about the STAT3 activation ([5]; MFE296, 1 μM, 0 to 72 hours) of the same molecule?
The STAT3 activation was “no effect”.

What about the STAT3 activation [5, 28] of the same molecule?
The STAT3 activation was “no effect”.

And the IC50 [6]?
Its IC50 is 0.0617 µM.

And the “growth of xenograft tumors” value [7]?
Its value is “suppressed growth of all eight”.

And the “tumors with tumor regression” value [7]?
The value was “six of the eight”.

And the mean tumor shrinkage ([7]; regressing tumors)?
Its mean tumor shrinkage is 51%.

And the IC50 [8]?
Its IC50 is over 3 µM.

What about the “apoptosis in myeloma cells” value [9] of the same molecule?
The value was “induce apoptosis”.

What about the IC50 [10] of the same molecule?
Its IC50 is about 0.1 µM.

What about the PLCγ activation [11] of the same molecule?
Its PLCγ activation is “no change”.

And the IC50 [12]?
Its IC50 is 0.284 µM.

What about the “effect on xenograft tumors” value [13] of the same molecule?
The value was “minimal effect”.

What about the cell cycle effect [14] of the same molecule?
The cell cycle effect was “induced cell cycle arrest”.

And the “Annexin V staining” value [15]?
Its value is “did not result in enhanced Annexin V staining”.

What about the “Annexin-V staining compared to DMSO” value ([16]; 1 μM, 48, 72 or 96 hours) of the same molecule?
Its value is “increase in Annexin-V staining”.

And the “cells undergoing apoptosis (Annexin V-FITC labeling)” value ([16]; 1 μM, 96 hours after drug treatment)?
The value was about 70%.

And the p38 activation ([17]; AN3CA, 1 μM, 0 to 72 hours)?
Its p38 activation is “no effect”.

And the p38 activation [17, 26]?
The p38 activation was “no effect”.

What about the p38 activation ([17]; HEC1A, 1 μM, 0 to 72 hours) of the same molecule?
Its p38 activation is “no effect”.

What about the p38 activation [17, 27] of the same molecule?
The p38 activation was “no effect”.

What about the p38 activation ([17]; MFE296, 1 μM, 0 to 72 hours) of the same molecule?
Its p38 activation is “no effect”.

And the p38 activation [17, 28]?
The p38 activation was “no effect”.

And the AKT phosphorylation [18, 20]?
The AKT phosphorylation was “modest suppression of AKT phosphorylation”.

And the AKT phosphorylation [18, 21]?
The AKT phosphorylation was “partial suppression of AKT phosphorylation”.

What about the AKT phosphorylation [18, 22] of the same molecule?
The AKT phosphorylation was “modest suppression of AKT phosphorylation”.

What about the AKT activation ([18]; 1 μM, 0 to 72 hours, 0.2% FBS) of the same molecule?
The AKT activation was “no effect”.

And the AKT activation ([18]; 1 μM, 0 to 72 hours, 10% FBS)?
The AKT activation was “no effect”.

And the AKT activation ([18]; increasing concentrations, 3 hours, 10% FBS)?
The AKT activation was “no effect”.

What about the AKT phosphorylation [18, 23] of the same molecule?
Its AKT phosphorylation is “modest suppression of AKT phosphorylation”.

What about the AKT phosphorylation [18, 24] of the same molecule?
The AKT phosphorylation was “partial suppression of AKT phosphorylation”.

And the AKT phosphorylation [18, 25]?
The AKT phosphorylation was “modest suppression of AKT phosphorylation”.

And the IC50 [19]?
Its IC50 is 2.92 µM.
